One block for each compound: values may come before it.
How the values were obtained:
[1] = test system: human cells; conditions: human cells in vitro; cited from earlier work
[2] = "at levels of up to 10%"; cited from earlier work
[3] = test system: skin of a subject's left arm (elastic fibers); experiment: Histology of elastin (VVG stained) punch biopsy, treated vs untreated skin; format: in vivo, human; conditions: 25% dimethyl isosorbide solution, topical, 24 days, vs untreated skin of same subject
Description: The skin of a subject's left arm was treated with a 25% dimethyl isosorbide solution of glucosyl pentagallate for 24 days.

[4] = test system: skin of a subject's left arm; experiment: Histology of polyphenol-stained (ferric chloride) punch biopsy, treated vs untreated skin; format: in vivo, human; conditions: 25% dimethyl isosorbide solution, topical, 24 days, vs untreated skin of same subject
Description: The skin of a subject's left arm 2 cm^2 patch (upper under arm above elbow) was treated with a 25% dimethyl isosorbide solution of glucosyl pentagallate for 24 days. Biopsy samples of the treated skin and a similar sample of untreated skin from the same subject's right were then taken, sectioned, and stained for polyphenol (Ferric Chloride stain) and imaged with a light microscope.

Structure (SMILES): CC1=NC(C(=O)O)CCN1 (stereo not shown) [Ectoin, 1,4,5,6-tetrahydro-2-methyl-4-pyrimidinecarboxylic acid]
cell damage from UV and visible light [1]: prevent cell damage from UV and visible light

Structure (SMILES): NCCCC(=O)O [GABA, γ-aminobutyric acid]
improvement of skin elasticity [2]: up to 10%

polyphenol (ferric chloride) staining of the dermis, showing glucosyl pentagallate in the dermis [4]: more black staining in the dermis
Structure (SMILES): O=C(OC[C@H]1O[C@@H](OC(=O)c2cc(O)c(O)c(O)c2)[C@H](OC(=O)c2cc(O)c(O)c(O)c2)[C@@H](OC(=O)c2cc(O)c(O)c(O)c2)[C@@H]1OC(=O)c1cc(O)c(O)c(O)c1)c1cc(O)c(O)c(O)c1 [glucosyl pentagallate]
VVG staining of elastic fibers (levels of elastin fibers) [3]: significant black staining
